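Compound exposure: 48 hours, 5 concentrations, 96-well plates. At the TGI there is no net growth.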
How the values were obtained:
Experiment in all cases: inhibition of tumour cell growth, NCI panel, 48 h
DLD-1 colon = system: DLD-1 colon
DMS 114 small cell lung = system: DMS 114 small cell lung
DMS 273 small cell lung = system: DMS 273 small cell lung
HCT-15 colon = system: HCT-15 colon
HOP-18 NSCLC = system: HOP-18 NSCLC
HOP-62 NSCLC = system: HOP-62 NSCLC
KM20L2 colon = system: KM20L2 colon
LXFL 529 NSCLC = system: LXFL 529 NSCLC
M19-MEL melanoma = system: M19-MEL melanoma
SF-268 CNS = system: SF-268 CNS
SNB-78 CNS = system: SNB-78 CNS
UACC-257 melanoma = system: UACC-257 melanoma
XF 498 CNS = system: XF 498 CNS

With `c1ccc2c(NCCCCCCCCNc3cccc4ccccc34)cccc2c1` as the compound, how does the TGI (DLD-1 colon) read?
The TGI was > 100 µM.

And the TGI (DMS 114 small cell lung)?
Its TGI is 68.2 µM.

What about the TGI (DMS 273 small cell lung) of the same compound?
The TGI was 80.6 µM.

And the TGI (HCT-15 colon)?
Its TGI is 84.7 µM.

And the TGI (HOP-18 NSCLC)?
Its TGI is 58.6 µM.

What about the TGI (HOP-62 NSCLC) of the same compound?
The TGI was > 100 µM.

What about the TGI (KM20L2 colon) of the same compound?
The TGI was > 100 µM.

What about the TGI (LXFL 529 NSCLC) of the same compound?
Its TGI is 38.1 µM.

What about the TGI (M19-MEL melanoma) of the same compound?
Its TGI is > 10 µM.

What about the TGI (SF-268 CNS) of the same compound?
Its TGI is > 100 µM.

What about the TGI (SNB-78 CNS) of the same compound?
The TGI was > 100 µM.

And the TGI (UACC-257 melanoma)?
Its TGI is 51.7 µM.

What about the TGI (XF 498 CNS) of the same compound?
The TGI was > 100 µM.

— PubChem BioAssay (NCI)
